Measured values from US20250034165A1, “COMPOUND CONTAINING CYCLOALKYL OR HALOALKYL” (CHIA TAI TIANQING PHARMACEUTICAL GROUP CO., LTD., priority 2021, published 2025).
Like-named read-outs stand apart in the source and are kept apart here.

What was measured:
[1] = tested on: BAF3-EGFR (del19/T790M/C797S) cells; experiment: Inhibition of proliferation of BAF3-EGFR (Del19/T790M/C797S) cells, CCK-8; type: cell-based; settings: 72 h, read-out: BAF3(EGFR T790M Del19 C797S) cell inhibitory activity IC50
Method in brief: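 Cells seeded at 1.0×10^5 cells/mL in RPMI + 10% FBS, cultured overnight at 37° C, 5% CO2, then compound added in duplicate wells, with untreated cells as negative control. Inhibition rate calculated against negative-control and blank means. IC50 obtained from four-parameter fit of inhibition versus log concentration.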

[2] = tested on: PC-9 EGFR-Del19-T790M-C797S cells; experiment: Inhibition of proliferation of PC-9-EGFR (Del19 T790M C797S) cells, CCK-8; type: cell-based; settings: 72 h, read-out: PC-9-EGFR (Del19 T790M C797S) cell inhibitory activity IC50
Method in brief: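 Cells seeded at 2×10^4 cells/mL were treated 72 h with compound at 1000 nM-0.06 nM final, in replicate wells. CCK-8 absorbance at 450 nm after 2 h gave inhibition rate relative to negative control and blank. IC50 from four-parameter fit against log concentration.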

[3] = In vitro stability in liver microsomes; type: in vitro ADME; settings: Human liver microsome
Experimental: 300 μL of the final incubation system contains 30 μL of liver microsomes (protein concentration: 0.15 mg/mL), 30 μL of NADPH+MgCl2, 3 μL of the test compound (in acetonitrile), and 237 μL of PBS buffer (pH 7.4). The proportion of the organic solvent (acetonitrile) was 1%. Samples were prepared in duplicate of 0.3 mL for each species (e.g., human or mouse liver microsomes). Tubes each containing 270 μL of a mixed solution of substrate and enzyme […] were pre-incubated at 37° C. for 5 min. 30 μL of NADPH+MgCl2 was added and the mixture was mixed. 50 μL of the mixture was taken at 0 min, 15 min, 30 min, and 60 min, and 300 μL of glacial acetonitrile containing an internal standard was added to terminate the reaction.
50 μL of the incubated sample was added with 300 μL of glacial acetonitrile containing an internal standard (20 ng/mL diazepam) for precipitation. The mixture was vortexed for 5 min, and centrifuged (12,000 rpm, 4° C.) for 10 min. 75 μL of supernatant was taken and diluted with 75 μL of ultrapure water. After being homogeneously mixed, 0.5 μL of the resulting sample was injected for analysis.

Row | SMILES | IC50 [1] [nM] | IC50 [2] [nM] | IC50 ([1]; Ba/F3 EGFR-Del19/T790M/C797S) [nM] | Stability in liver microsomes (residual %, T = 60 min) [3] [%]
1 | Cc1cc2cc(n1)-c1cnn(C)c1OCCC[C@@H](C1CC1)CN1/C(=N/C2=O)Nc2cc(N[C@H]3CC[C@H](N(C)C)CC3)ccc21 [Example 25] | < 1 | < 50 | – | 103.07
2 | C[C@H](Nc1ccc2c(c1)N/C1=N\C(=O)c3cc(F)nc(c3)-c3cnn(C)c3OCCC[C@@H](C3CC3)CN12)C(F)(F)F [Example 9] | – | – | – | 59.54
3 | Cc1cc2cc(n1)-c1cnn(C)c1OCCC[C@@H](C1CC1)CN1/C(=N/C2=O)Nc2ccc(NCCN(C)C)cc21 [Example 28] | – | < 50 | < 1 | –

Continued, values first:

Row | IC50 [1] [nM] | IC50 [2] [nM] | IC50 ([1]; Ba/F3 EGFR-Del19/T790M/C797S) [nM] | Stability in liver microsomes (residual %, T = 60 min) [3] [%] | SMILES
4 | < 1 | < 50 | – | – | Cc1cc2cc(n1)-c1cnn(C)c1OCCC[C@@H](C1CC1)CN1/C(=N/C2=O)Nc2cc(N[C@H](C)C3COC3)ccc21 [Example 39]
5 | – | < 50 | < 1 | – | Cc1cc2cc(n1)-c1cnn(C)c1OCCC[C@@H](C1CC1)CN1/C(=N/C2=O)Nc2cc(NC3(C)COC3)ccc21 [Example 29]
6 | < 1 | < 50 | – | 98.30 | Cc1cc2cc(n1)-c1cnn(C)c1OCCC[C@@H](C1CC1)CN1/C(=N/C2=O)Nc2cc(N[C@H]3CC[C@@H](N(C)C)CC3)ccc21 [Example 26]
